{"source": "patent US7153886B2", "about": "“Method for treatment of peripheral inflammation of a loop ileal artificial anus” (Tanabe Seiyaku Co., Ltd., priority 1999, dated 2006)", "key": {"[1]": {"tested_on": "intestinal mucosal injury induced by intra-intestinal infusion of acetic acid", "test": "Prophylactic or therapeutic effect on acetic acid-induced intestinal injury", "format": "in vivo", "conditions": "Fischer rats", "excerpt": "Sulfodehydroabietic acid monosodium salt […] (hereinafter referred to as Ecabet sodium) of the active ingredient of the present invention was previously administered to Fischer rats, and the prophylactic or therapeutic effect thereof on intestinal mucosal injury induced by intra-intestinal infusion of acetic acid was studied. Namely, granules containing Ecabet sodium (0.5 g, trade name: Gastrome granule, containing 1.0 g of Ecabet sodium per 1.5 g, hereinafter simply referred to as Ecabet sodium-containing granules) were suspended in a physiological saline, and the mixture was injected intra-rectally to Fischer rats. One hour thereafter, a 25% acetic acid solution was intra-rectally injected to the rats. Two hours after the administration of acetic acid, the intestine was excised from the rats, and the histopathological changes in the surface of the intestinal inner wall was observed visually and with a microscope, and the injury of the intestinal mucosa was evaluated both macroscopically and histologically. In the control group, the same procedures were repeated except for that a physiological saline was administered instead of a suspension of Ecabet sodium-containing granules in a physiological saline. […] In addition, the degree of the intestine mucosal injury between the physiological saline-treated group and the Ecabet sodium-treated group was scored and compared according to the criteria as mentioned below, which was based on the method for Classification and Evaluation of Macpherson, B. R. et al., Digestion, 17, p. 135–150 (1978). The data is indicated in Table 1. • (1) Scoring criteria of degree of macroscopic injury: [table] • (2) Scoring criteria of degree of histological injury: [table]"}, "[2]": {"tested_on": "TNBS-induced enteritis; mucosal injury of the intestine induced by acetic acid", "test": "Effect on TNBS-induced enteritis (followed by acetic acid)", "format": "in vivo, Fischer rats", "experimental": "Ecabet sodium of the active ingredient of the present invention was administered to Fischer rats to which TNBS was previously intra-intestinally injected to induce chronic enteritis, and further acetic acid was administered to the rats. Prophylactic or therapeutic effect of Ecabet sodium on the mucosal injury of the intestine induced by acetic acid was studied.\nNamely, a solution of TNBS (2,4,6-trinitrobenzenesulfonic acid) in 50% ethanol was injected intra-intestinally to Fischer rats at a dose of 50 mg per 1 kg of the body weight to give the TNBS-induced enteritis. Three weeks thereafter, Ecabet sodium-containing granules (0.5 g) was suspended in a physiological saline, and the mixture was administered intra-rectally to the rats. Thirty minutes thereafter, a 25% acetic acid solution was intra-rectally injected to the rats, and two hours after the acetic acid administration, the intestine was excised from the rats, and the intestinal mucosal injury thereof was scored and evaluated both macroscopically and histologically in the same manner as in Experiment 1 according to the Macpherson's method for Classification and Evaluation. In the control group, the same procedures were repeated except for that a physiological saline was administered instead of a suspension of Ecabet sodium-containing granules in a physiological saline."}, "[3]": {"tested_on": "intestinal Behçet's disease", "test": "Clinical effects in a patient of Behçet's disease", "format": "in vivo, human patient", "conditions": "person", "excerpt": "The patient was a person, whose illness had been diagnosed as intestinal Behçet's disease accompanying with the multiple ulcerative lesion at the small intestine, and who had been medically treated (i.e., administration of a steroid, etc.). Then, the patient was operated surgically twice to excise the intestine on account of massive melena and regional peritonitis but the lesion of the remaining intestine was exacerbated, and further ileus, melena, and peritonitis symptoms caused by anastomotic recrudescence appeared. In order to excise the injured intestine, the abdomen of the patient was incised, but the injured area was so large that the intestine could not be excised, so that a loop ileal artificial anus was installed for administration of Ecabet sodium.\nEcabet sodium was administered to the patient mentioned above. That is, Ecabet sodium-containing granules (1.5 g) were orally administered twice a day. Further, said granules (1.5 g) were pulverized in a mortar, suspended in water, and the resultant was directly administered into the intestine through the artificial anus twice a day. After the administration of Ecabet sodium, the pain and the melena disappeared in a several days."}, "[4]": {"tested_on": "left-sided colon ulcerative colitis", "test": "Clinical effects in ulcerative colitis (Experiments 5-7)", "format": "in vivo, human patient", "experimental": "The patient was a person, whose illness was diagnosed as left-sided colon ulcerative colitis. The patient was medicated with mesalazine and a steroid, and treated with leukocytapheresis, but the rectal lesion was remained, and the symptoms were not improved any further. The inflammation was scored as Matts Grade 3 (Quarterly Journal of Medicine, New Series, No. 120, October 1961), and it was so frail that it bled when the endoscopic examination was carried out.\n(§1) Ecabet sodium was administered to the patient mentioned above. That is, Ecabet sodium-containing granules (1.5 g) were pulverized in a mortar, suspended in a physiological saline (20 ml), and the resultant was rectally administered through the anus twice a day. After the administration, the inflammation was remitted to Matts Grade 2, and the inflammation area was decreased.\nThe patient was a person, whose illness was diagnosed as left-sided colon ulcerative colitis. The patient was medicated with mesalazine, predonine and a steroid, by which the inflammation was controlled to a degree of disseminated ulcer at the rectum, but further improvement was not obtained.\nas §1, with “ulcer” for “inflammation”, “improved into a red scar.” for “remitted to Matts Grade 2, and the inflammation area was decreased.”\nThe patient was a person, whose illness was diagnosed as left-sided colon ulcerative colitis. The patient was medicated with salazosulfapyridine and predonine, and treated with leukocytapheresis, but the inflammation condition at the rectum could not be controlled, and the bleeding and the melena lasted.\nEcabet sodium was administered to the patient mentioned above. That is, Ecabet sodium-containing granules (1.5 g) were pulverized in a mortar, suspended in a physiological saline (20 ml), and the resultant was rectally administered through the anus twice a day."}, "[5]": {"tested_on": "acute hemorrhagic rectal ulcer", "test": "Clinical effects in acute hemorrhagic rectal ulcer (Experiments 8-10)", "format": "in vivo, human patient", "experimental": "The patient was a person, who was hospitalized for treatment of HCV-associated hepatocirrhosis, hepatocellular carcinoma and esophageal varices. After the endoscopic ossification treatment for the esophageal varices was done, an acute hemorrhagic rectal ulcer appeared at whole of the lower rectum. The patient was treated with total parenteral nutrition for 52 days, but the conditions were not improved. Ecabet sodium was administered to the patient mentioned above. That is, Ecabet sodium-containing granules (1.5 g) were suspended in water, and the resultant was injected through the anus twice a day for about 1.5 month. […] The patient was a person, who was hospitalized for treatment of the right thighbone break. During the treatment thereof, an acute hemorrhagic rectal ulcer occurred at whole of the lower rectum. The patient was treated with total parenteral nutrition, but the conditions were not improved. Ecabet sodium was administered to the patient mentioned above. That is, Ecabet sodium-containing granules (1.5 g) were suspended in water, and the resultant was injected through the anus twice a day for about 2.5 months. […] The patient was a person, who was hospitalized for treatment of pancreatic cancer. During the treatment, an acute hemorrhagic rectal ulcer appeared at whole of the lower rectum. Ecabet sodium was administered to the patient mentioned above. That is, Ecabet sodium-containing granules (1.5 g) were suspended in water, and the resultant was injected through the anus twice a day for about 1 month."}, "[6]": {"tested_on": "large and small intestine Crohn's disease", "test": "Clinical effects in a patient of Crohn's disease", "format": "in vivo, human patient", "conditions": "person; one year after the start of the administration", "experimental": "The patient was a person, whose illness was diagnosed from the pathological data as large and small intestine Crohn's disease. The exacerbation and the remission were mutually repeated, and the patient was treated with a conventional medicine, but the exacerbation of the anal lesion and the bleeding at the intestine could not be controlled. Although a surgical excision of the lesion was considered, the area of the lesion was so large that it could not be excised, and therefore, a loop ileal artificial anus was installed for administration of Ecabet sodium. Ecabet sodium was administered to the patient mentioned above. That is, Ecabet sodium-containing granules (1.5 g) were pulverized in a mortar, suspended in water, and the resultant was directly administered into the intestine through the artificial anus once a day."}, "[7]": {"tested_on": "ileum pouchitis accompanying with acute hemorrhagic ulcer", "test": "Clinical effects in ileum pouchitis", "format": "in vivo, human patient", "conditions": "Experiment 11, person; granules 1.5 g in water through the anus twice a day for about 4 months", "experimental": "The patient was a person. During the postoperative treatment, ileum pouchitis accompanying with acute hemorrhagic ulcer appeared at the ileum pouch which was subjected to ileal pouch/anal anastomosis by the operation for ulcerative colitis. Ecabet sodium was administered to the patient mentioned above. That is, Ecabet sodium-containing granules (1.5 g) were suspended in water, and the resultant was injected through the anus twice a day for about 4 months."}, "[8]": {"conditions": "compared with the disodium salt; cited from earlier work"}, "[9]": {"conditions": "Ecabet sodium-containing granules 0.5 g in saline intra-rectally 1 h before 25% acetic acid, intestine excised 2 h after acetic acid, mean ± s.e. of sum of scores (0-3) of 4 items"}, "[10]": {"conditions": "Fischer rats 3 weeks after TNBS 50 mg/kg, granules 0.5 g intra-rectally 30 min before 25% acetic acid, 2 h after acetic acid, P < 0.05 vs saline"}}, "note": "Entries after “also recorded” stand apart in the source; their conditions may differ. Where a name gives a salt, the structure may show the parent alone.", "data": [{"compound": "CC(C)c1cc2c(cc1S(=O)(=O)O)[C@@]1(C)CCC[C@@](C)(C(=O)O)[C@@H]1CC2", "note": "[Ecabet sodium, (+)-(1R,4aS,10aR)-1,2,3,4,4a,9,10,10a-octahydro-1,4a-dimethyl-7-(1-methylethyl)-6-sulfo-1-phenanthrenecarboxylic acid 6-sodium salt pentahydrate]", "values": [{"measurement": "Degree of Histological Injury", "setting": "[1]; [9]", "result": "2.3 ± 0.4"}, {"measurement": "Degree of Macroscopic Injury", "setting": "[1]; [9]", "result": "1.3 ± 0.2"}, {"measurement": "intestinal mucosal injury induced by acetic acid (observation)", "setting": "[1]; versus physiological saline-treated rats (injury broadly observed)", "result": "hardly observed"}, {"measurement": "Degree of Histological Injury", "setting": "[2]; [10]", "result": "4.6 ± 0.4"}, {"measurement": "Degree of Macroscopic Injury", "setting": "[2]; [10]", "result": "3.9 ± 0.3"}, {"measurement": "intestinal mucosal injury (observation)", "setting": "[2]; TNBS-enteritis Fischer rats, versus physiological saline-treated rats", "result": "effectively inhibited"}, {"measurement": "ulcerative lesion in the endoscopic finding", "setting": "[3]; 2 weeks after the start of the administration", "result": "remarkably improved"}, {"measurement": "recrudescence", "setting": "[3]; 7 months after the start of the administration", "result": "has not been observed"}, {"measurement": "pain and melena", "setting": "[3]; granules 1.5 g orally twice a day plus 1.5 g through artificial anus twice a day, in a several days", "result": "disappeared"}, {"measurement": "Inflammation, Matts Grade, after the administration", "setting": "[4]; Experiment 5, person, granules 1.5 g in saline 20 ml rectally twice a day, Matts Grade 3 before", "result": "Grade 2"}, {"measurement": "Area of inflammation after the administration", "setting": "[4]; Experiment 5, person, granules 1.5 g rectally twice a day", "result": "decreased; also recorded: reduced"}, {"measurement": "inflammation of the intestine tissue at the lesion (endoscope)", "setting": "[4]; Experiment 5, 11 days after the start of the administration", "result": "remarkably improved"}, {"measurement": "ulcer at the rectum after the administration (endoscope)", "setting": "[4]; Experiment 6, person, granules 1.5 g in saline 20 ml rectally twice a day, 18 days, intractable ulcer before", "result": "turned into a red scar; also recorded: Improvement into a red"}, {"measurement": "inflammation condition after the administration", "setting": "[4]; Experiment 7, person, granules 1.5 g in saline 20 ml rectally twice a day, mild to moderate inflammation before", "result": "only a slight erythema was remained; also recorded: Improvement into a slight"}, {"measurement": "inflammation of the lesion (endoscope)", "setting": "[4]; Experiment 7, 12 days after the start of the administration", "result": "almost disappeared"}, {"measurement": "acute hemorrhagic rectal ulcer outcome", "setting": "[5]; Experiment 8, person, granules 1.5 g in water through the anus twice a day for about 1.5 month", "result": "cured without any cicatricial stenosis"}, {"measurement": "acute hemorrhagic rectal ulcer outcome", "setting": "[5]; Experiment 9, person, granules 1.5 g in water through the anus twice a day for about 2.5 months", "result": "cured without any cicatricial stenosis"}, {"measurement": "acute hemorrhagic rectal ulcer outcome", "setting": "[5]; Experiment 10, person, granules 1.5 g in water through the anus twice a day for about 1 month", "result": "cured without any cicatricial stenosis"}, {"measurement": "injury of the intestinal mucosa (endoscope)", "setting": "[6]", "result": "disappeared"}, {"measurement": "ileum pouchitis and ulcer outcome", "setting": "[7]", "result": "cured without any cicatricial stenosis"}]}, {"compound": "CC(C)c1cc2c(cc1S(=O)(=O)[O-])[C@@]1(C)CCC[C@@](C)(C(=O)O)[C@@H]1CC2.[Na+]", "note": "[Sulfodehydroabietic acid monosodium salt]", "values": [{"measurement": "hygroscopicity", "setting": "[8]", "result": "less hygroscopic"}, {"measurement": "stability", "setting": "[8]", "result": "more stable"}]}]}
